Source: ChEMBL document CHEMBL1134341, “Calculation of the hydrophobicity of platinum drugs” (J Med Chem, 2001)

Key:
[1] = The observed [pt] (mmol/mg protein) value for platinum content in cells; format: ADME
[2] = Octanol-water partition coefficient (logP) value for platinum compounds; format: physicochemical

## CISPLATIN
[1]
  Observed [pt]: 1 mM (mg of protein)-1
[2]
  logP: -2.36

## AMMONIO(DICHLORO)[DI(METHYLCARBONYLOXY)]PLATINUM(CYCLOHEXYL)AMMONIUM
[1]
  Observed [pt]: 3.5 mM (mg of protein)-1
[2]
  logP: -0.47

## AMMONIO(DICHLORO)[DI(BUTYLCARBONYLOXY)]PLATINUM(CYCLOHEXYL)AMMONIUM
[1]
  Observed [pt]: 17 mM (mg of protein)-1
[2]
  logP: 0.86

## AMMONIO(DICHLORO)PLATINUM(CYCLOHEXYL)AMMONIUM
[1]
  Observed [pt]: 1.9 mM (mg of protein)-1
[2]
  logP: -0.87

## AMMONIO(DICHLORO)[DI(PROYLCARBONYLOXY)]PLATINUM(CYCLOHEXYL)AMMONIUM
[1]
  Observed [pt]: 13.5 mM (mg of protein)-1
[2]
  logP: 0.47
